Measurements: patent US12480163B2, “Compositions and methods for identification assessment, prevention, and treatment of Ewing sarcoma using TP53 dependency biomarkers and modulators” (Dana-Farber Cancer Institute, Inc., priority 2018, dated 2025)
Entries after “also recorded” stand apart in the source; their conditions may differ.

Tests used:
TC32 xenograft tumors = assay: TC32 Ewing sarcoma xenograft anti-tumor efficacy study; type: in vivo, mice; conditions: 30 mg/kg IV every other day for 20 d (10 doses) vs vehicle
Experimental: (§1) j. Ewing Sarcoma Xenograft Studies
(§2) For anti-tumor efficacy studies, tumor xenografts were established in 15 nude female mice by implanting three million TC32 cells into the right flank. Animals were randomized to either 20 d of treatment with 30 mg/kg q.o.d. IV ATSP-7041 (n=8) or vehicle (n=7) for a total of 10 doses. Treatment was started when tumors reached 100-200 mm3. Tumor volumes were measured with calipers twice a week. For PDX studies, tumor fragments were implanted into the right flank of nude female mice by minor surgery. After tumor engraftment, studies were performed as described for TC32 xenograft studies.
(§3) For in vivo studies, ATSP-7041 was prepared using the following protocol: mPEG-DSPE (Nanocs) was dissolved in chloroform and dried by a rotary evaporator. ATSP-7041 was dissolved in 1 M NaOH and diluted 100-fold in 10 mM histidine-buffered saline to a final concentration of 3 mg/ml. This mixture was added to the dried lipid film to a final mPEG-DSPE concentration of 50 mg/ml and final pH 7. The film was rehydrated by brief sonication and heating in a 50° C. water bath. The mixture was then subjected to five freeze-thaw cycles in liquid nitrogen and 40° C. water, respectively, and the solution passed 10 times through an Avanti Mini-Extruder Set (Avanti Polar Lipids) equipped with a 800-nm filter (Whatman).

PDX tumors (HSJD-ES-002) = assay: Ewing sarcoma PDX (HSJD-ES-002) anti-tumor efficacy study; type: in vivo, mice
Experimental: as §1, §2, §3

With `CC(=O)N[C@@H](CC(C)C)C(=O)N[C@H](C(=O)N[C@@H](Cc1ccccc1)C(=O)N[C@]1(C)CCCCCCC=CCCC[C@@](C)(C(=O)N[C@@H](CO)C(=O)N[C@@H](C)C(=O)N[C@@H](C)C(N)=O)NC(=O)[C@H](CC2CCC2)NC(=O)[C@H](CCC(N)=O)NC(=O)[C@H](C)NC(=O)[C@H](Cc2c[nH]c3ccccc23)NC(=O)[C@H](Cc2ccc(O)cc2)NC(=O)[C@H](CCC(=O)O)NC1=O)[C@@H](C)O` [ATSP-7041, Ac-Leu17-Thr-Phe-cyclo(R8-Glu-Tyr-Trp-Ala-Gln-Cba-S5)-Ser-Ala-Ala30-NH2] the “tumor growth (normalized tumor volume)” value (TC32 xenograft tumors) was “significantly suppressed tumor growth”, the survival of mice (PDX tumors (HSJD-ES-002); PDX HSJD-ES-002, 10 doses 30 mg/kg q.o.d. vs vehicle) was “significantly extended” and the “tumor growth (normalized tumor volume)” value (PDX tumors (HSJD-ES-002); PDX HSJD-ES-002, 10 doses 30 mg/kg q.o.d. vs vehicle, 30 mg/kg) was “slowed significantly; also recorded: slowed in all mice”. The complete tumor regression (PDX tumors (HSJD-ES-002); PDX HSJD-ES-002, one mouse of n=8, observed time frame of 227 d) was “complete tumor regression without recurrence; also recorded: one out of eight mice achieved complete and sustained remission of disease”.
